Test results reported in ChEMBL document CHEMBL4002584, “Synthesis and antibacterial activities of novel pleuromutilin derivatives with a substituted pyrimidine moiety” (2017).
≈ marks a conversion by molar mass, not a printed value.

Tests used:
Type in all cases: functional
Staphylococcus aureus [1] = test: Antibacterial activity against […] Staphylococcus aureus ATCC 29213 at 320 ug/ml after 24 to 36 hrs by oxford cup assay; details: read-out: DIZ
Escherichia coli [2] = test: Antibacterial activity against Escherichia coli CMCC (B) 44102 at 320 ug/ml after 24 to 36 hrs by oxford cup assay; details: read-out: DIZ
Staphylococcus aureus [3] = test: Antibacterial activity against […] Staphylococcus aureus ATCC 33591 after 24 to 48 hrs by agar dilution method
Bacillus subtilis [4] = test: Antibacterial activity against Bacillus subtilis CMCC (B) 63501 at 320 ug/ml after 24 to 36 hrs by oxford cup assay; details: read-out: DIZ
Staphylococcus aureus [5] = test: Antibacterial activity against […] Staphylococcus aureus ATCC 29213 after 24 to 48 hrs by agar dilution method
Staphylococcus aureus [6] = test: Antibacterial activity against […] Staphylococcus aureus ATCC 33591 at 160 ug/ml after 24 to 36 hrs by oxford cup assay; details: read-out: DIZ
Escherichia coli [7] = test: Antibacterial activity against Escherichia coli CMCC (B) 44102 at 160 ug/ml after 24 to 36 hrs by oxford cup assay; details: read-out: DIZ
Staphylococcus aureus [8] = test: Antibacterial activity against […] Staphylococcus aureus ATCC 29213 at 160 ug/ml after 24 to 36 hrs by oxford cup assay; details: read-out: DIZ
Staphylococcus aureus [9] = test: Antibacterial activity against Staphylococcus aureus CMCC (B) 26003 at 320 ug/ml after 24 to 36 hrs by oxford cup assay; details: read-out: DIZ
Staphylococcus aureus [10] = test: Antibacterial activity against Staphylococcus aureus CMCC (B) 26003 after 24 to 48 hrs by agar dilution method
Escherichia coli [11] = test: Antibacterial activity against Escherichia coli CMCC (B) 44102 after 24 to 48 hrs by agar dilution method
Bacillus subtilis [12] = test: Antibacterial activity against Bacillus subtilis CMCC (B) 63501 at 160 ug/ml after 24 to 36 hrs by oxford cup assay; details: read-out: DIZ
Staphylococcus aureus [13] = test: Antibacterial activity against […] Staphylococcus aureus ATCC 33591 at 320 ug/ml after 24 to 36 hrs by oxford cup assay; details: read-out: DIZ
Bacillus subtilis [14] = test: Antibacterial activity against Bacillus subtilis CMCC (B) 63501 after 24 to 48 hrs by agar dilution method
Staphylococcus aureus [15] = test: Antibacterial activity against Staphylococcus aureus CMCC (B) 26003 at 160 ug/ml after 24 to 36 hrs by oxford cup assay; details: read-out: DIZ

| Compound | zone of inhibition at 320 µg/mL (Staphylococcus aureus [1]) | zone of inhibition at 320 µg/mL (Escherichia coli [2]) | MIC (Staphylococcus aureus [3]) | zone of inhibition at 320 µg/mL (Bacillus subtilis [4]) | MIC (Staphylococcus aureus [5]) | zone of inhibition at 160 µg/mL (Staphylococcus aureus [6]) | zone of inhibition at 160 µg/mL (Escherichia coli [7]) | zone of inhibition at 160 µg/mL (Staphylococcus aureus [8]) | zone of inhibition at 320 µg/mL (Staphylococcus aureus [9]) | MIC (Staphylococcus aureus [10]) | MIC (Escherichia coli [11]) | zone of inhibition at 160 µg/mL (Bacillus subtilis [12]) | zone of inhibition at 320 µg/mL (Staphylococcus aureus [13]) | MIC (Bacillus subtilis [14]) | zone of inhibition at 160 µg/mL (Staphylococcus aureus [15]) |
| --- | --- | --- | --- | --- | --- | --- | --- | --- | --- | --- | --- | --- | --- | --- | --- |
| C=C[C@]1(C)C[C@@H](OC(=O)CSc2nc(N)cc(NC(=O)CN(CC)CC)n2)[C@]2(C)[C@H](C)CC[C@]3(CCC(=O)[C@H]32)[C@@H](C)[C@@H]1O | 22.3 mm | 12 mm | 0.25 µg/mL (≈ 0.406 µM) | 15.7 mm | 0.5 µg/mL (≈ 0.812 µM) | 19.9 mm | 10.1 mm | 16.4 mm | 34.2 mm | 0.125 µg/mL (≈ 0.203 µM) | 8 µg/mL (≈ 13 µM) | 13.4 mm | 25.8 mm | 4 µg/mL (≈ 6.5 µM) | 23.6 mm |
| C=C[C@]1(C)C[C@@H](OC(=O)CSc2nc(N)cc(NC(=O)CN3CCC[C@@H](CO)C3)n2)[C@]2(C)[C@H](C)CC[C@]3(CCC(=O)[C@H]32)[C@@H](C)[C@@H]1O | 34.4 mm | 13.3 mm | 0.125 µg/mL (≈ 0.19 µM) | 22.2 mm | 0.125 µg/mL (≈ 0.19 µM) | 25.8 mm | 10.3 mm | 26.5 mm | 38.1 mm | 0.0625 µg/mL (≈ 0.095 µM) | 4 µg/mL (≈ 6.08 µM) | 17.7 mm | 35.1 mm | 1 µg/mL (≈ 1.52 µM) | 25.9 mm |
| C=C[C@]1(C)C[C@@H](OC(=O)CSc2nc(N)cc(NC(=O)CN(C)C)n2)[C@]2(C)[C@H](C)CC[C@]3(CCC(=O)[C@H]32)[C@@H](C)[C@@H]1O | 25.4 mm | 12.1 mm | 0.5 µg/mL (≈ 0.851 µM) | 17.5 mm | 1 µg/mL (≈ 1.7 µM) | 18 mm | 9.55 mm | 18.9 mm | 34.2 mm | 0.25 µg/mL (≈ 0.425 µM) | 8 µg/mL (≈ 13.6 µM) | 13.9 mm | 22.4 mm | 4 µg/mL (≈ 6.81 µM) | 21.8 mm |
| C=C[C@]1(C)C[C@@H](OC(=O)CSc2nc(N)cc(NC(=O)CN3CC[C@H](O)C3)n2)[C@]2(C)[C@H](C)CC[C@]3(CCC(=O)[C@H]32)[C@@H](C)[C@@H]1O | 29.6 mm | 10.5 mm | 0.25 µg/mL (≈ 0.397 µM) | 15.8 mm | 0.125 µg/mL (≈ 0.198 µM) | 22.7 mm | 8.86 mm | 22.1 mm | 32.7 mm | 0.125 µg/mL (≈ 0.198 µM) | 8 µg/mL (≈ 12.7 µM) | 13.6 mm | 33.3 mm | 2 µg/mL (≈ 3.18 µM) | 22.1 mm |
| C=C[C@]1(C)C[C@@H](OC(=O)CSc2nc(N)cc(NC(=O)CN3CCOCC3)n2)[C@]2(C)[C@H](C)CC[C@]3(CCC(=O)[C@H]32)[C@@H](C)[C@@H]1O | 28 mm | 11.9 mm | 1 µg/mL (≈ 1.59 µM) | 19.6 mm | 0.25 µg/mL (≈ 0.397 µM) | 17.9 mm | 9.82 mm | 20.2 mm | 35.4 mm | 0.125 µg/mL (≈ 0.198 µM) | 4 µg/mL (≈ 6.35 µM) | 14.2 mm | 26.8 mm | 2 µg/mL (≈ 3.18 µM) | 24.7 mm |
| C=C[C@]1(C)C[C@@H](OC(=O)CSc2nc(N)cc(NC(=O)CN3CCC(CCO)CC3)n2)[C@]2(C)[C@H](C)CC[C@]3(CCC(=O)[C@H]32)[C@@H](C)[C@@H]1O | 24.9 mm | 12.7 mm | 0.5 µg/mL (≈ 0.744 µM) | 17.3 mm | 1 µg/mL (≈ 1.49 µM) | 21.6 mm | 10.6 mm | 18.3 mm | 33.6 mm | 0.125 µg/mL (≈ 0.186 µM) | 8 µg/mL (≈ 11.9 µM) | 15.6 mm | 32.4 mm | 2 µg/mL (≈ 2.98 µM) | 24 mm |
| C=C[C@]1(C)C[C@@H](OC(=O)CSc2nc(N)cc(NC(=O)CN3CCCC3)n2)[C@]2(C)[C@H](C)CC[C@]3(CCC(=O)[C@H]32)[C@@H](C)[C@@H]1O | 26.5 mm | 13.4 mm | 0.5 µg/mL (≈ 0.815 µM) | 20 mm | 0.5 µg/mL (≈ 0.815 µM) | 18.3 mm | 10.2 mm | 19.2 mm | 30.4 mm | 0.125 µg/mL (≈ 0.204 µM) | 4 µg/mL (≈ 6.52 µM) | 14.9 mm | 24 mm | 2 µg/mL (≈ 3.26 µM) | 22.2 mm |
| C=C[C@]1(C)C[C@@H](OC(=O)CSc2nc(N)cc(NC(=O)CN3CCCCC3)n2)[C@]2(C)[C@H](C)CC[C@]3(CCC(=O)[C@H]32)[C@@H](C)[C@@H]1O | 24.9 mm | 10.3 mm | 0.5 µg/mL (≈ 0.796 µM) | 19.6 mm | 0.25 µg/mL (≈ 0.398 µM) | 17.9 mm | 8.89 mm | 18.2 mm | 30.1 mm | 0.25 µg/mL (≈ 0.398 µM) | 8 µg/mL (≈ 12.7 µM) | 15.2 mm | 22.8 mm | 4 µg/mL (≈ 6.37 µM) | 23 mm |
| C=C[C@]1(C)C[C@@H](OC(=O)CSc2nc(N)cc(NC(=O)CN3CCC(O)CC3)n2)[C@]2(C)[C@H](C)CC[C@]3(CCC(=O)[C@H]32)[C@@H](C)[C@@H]1O | 30.5 mm | 11.4 mm | 0.25 µg/mL (≈ 0.388 µM) | 16.1 mm | 0.25 µg/mL (≈ 0.388 µM) | 23.5 mm | 8.54 mm | 21 mm | 30.6 mm | 0.125 µg/mL (≈ 0.194 µM) | 4 µg/mL (≈ 6.21 µM) | 13.6 mm | 34.4 mm | 2 µg/mL (≈ 3.11 µM) | 21.1 mm |
